Reference: article PMC9266822, “Thermal Shift Assay for Small GTPase Stability Screening: Evaluation and Suitability” (International Journal of Molecular Sciences, 2022)
“Also recorded” adds a separate entry of the source.

Columns and labels:
[1] = system: T1, KRAS G12C; assay: Protein-Probe thermal stability assay; format: binding, human; conditions: for thermal stability effect: 10 µM compound, 1 mM MgCl2
T1 construct: GG-Hs.KRAS4b (2-188) G12C; His6-MBP (N, cleaved yes); made in house; host or cells: E. coli
Description: All Protein-Probe assays were performed using a sample volume of 8 µL and a two-step assay protocol. […] Assays were performed in a sample buffer containing 10 mM HEPES (pH 7.5), 0.001% Triton X-100 and 20 mM NaCl and the buffer was supplemented with 0–10 mM MgCl2, 0–1 mM CaCl2, or 0–1 mM EDTA, depending on the assay. In all thermal stability assays, samples were preincubated at RT for 10 min (nucleotides) or 30 min (inhibitors) prior to thermal measurements. […] At each temperature, samples were incubated for 3 min before the Protein-Probe solution was added, and the TRL-signals at 620 nm were monitored at RT. […]
(§1) All inhibitor assays were performed with a buffer containing 1 mM MgCl2. […]

[2] = system: T2, KRAS WT; assay: Protein-Probe thermal stability assay; format: binding, human; conditions: for thermal stability effect: 10 µM compound; for thermal stability effect / KRAS stabilizing effect / concentration at which KRAS was stabilized: 1 mM MgCl2; for Thermal Stability (°C): Table S1, additive as headed: EDTA 0.5 mM, MgCl2 1 mM, GDP 10 mM, GTP 10 µM, GTPγS 10 µM, GMP-PNP 300 µM; for Thermal Stability (°C) / KRAS stabilizing effect: GMP-PCP 300 µM, GMP 1 mM
T2 construct: His6-MBP (N, cleaved yes); made in house; host or cells: E. coli
Description: (§2) All Protein-Probe assays were performed using a sample volume of 8 µL and a two-step assay protocol. Detection was performed at room temperature (RT) by adding 65 µL Protein-Probe solution: 4 µM HIDC (1,1,3,3,3′,3′-hexamethylindodicarbocyanine iodide) and 1–1.5 nM Eu^3+-labeled peptide probe (NH2-[…]). Assays were performed in a sample buffer containing 10 mM HEPES (pH 7.5), 0.001% Triton X-100 and 20 mM NaCl and the buffer was supplemented with 0–10 mM MgCl2, 0–1 mM CaCl2, or 0–1 mM EDTA, depending on the assay. In all thermal stability assays, samples were preincubated at RT for 10 min (nucleotides) or 30 min (inhibitors) prior to thermal measurements. Depending on the studied protein, thermal ramping was performed up to 95 °C, using 5 °C intervals. At each temperature, samples were incubated for 3 min before the Protein-Probe solution was added, and the TRL-signals at 620 nm were monitored at RT.
(§3) In addition, KRAS WT was monitored in a sample buffer supplemented with 0–10 mM MgCl2 or 0–1 mM CaCl2.
[…] KRAS WT (50 nM) was also monitored with 10 µM GDP in a buffer without MgCl2 or supplemented with 0–1 mM CaCl2 or 1 mM EDTA. HRAS (2 µM), NRAS (2 µM), RhoA (2 µM), and Gαi (50 nM) were monitored with 100 µM GDP, GTP, or ATP in buffers with or without 1 mM MgCl2 and 1 mM EDTA. In addition, melting curves for KRAS WT (50 nM) were measured with GTP analogs GTPγS, GMPPNP, and GMPPCP (0–300 µM), and GMP (0–1000 µM) in the presence of 1 mM MgCl2.
as §1

[3] = system: KRAS G12D; assay: Protein-Probe thermal stability assay; format: binding, human; conditions: KRAS G12D 50 nM; 10 µM compound
Description: as §2, §3
(§4) KRAS G13D (50 nM) was monitored in the presence of 0–900 nM GDP, and KRAS WT, G13D, G12D, and Q61R (50 nM) were monitored with 10 and/or 100 µM GDP, GTP, and ATP in buffer supplemented with 1 mM MgCl2. KRAS WT (50 nM) was also monitored with 10 µM GDP in a buffer without MgCl2 or supplemented with 0–1 mM CaCl2 or 1 mM EDTA. HRAS (2 µM), NRAS (2 µM), RhoA (2 µM), and Gαi (50 nM) were monitored with 100 µM GDP, GTP, or ATP in buffers with or without 1 mM MgCl2 and 1 mM EDTA. In addition, melting curves for KRAS WT (50 nM) were measured with GTP analogs GTPγS, GMPPNP, and GMPPCP (0–300 µM), and GMP (0–1000 µM) in the presence of 1 mM MgCl2.
All inhibitor assays were performed with a buffer containing 1 mM MgCl2.
(§5) Assays were performed using three DARPins alone or in combination with small molecular inhibitors. […] The thermal curves were monitored after an additional 30 min incubation at RT.

[4] = molecular target: T3, KRAS WT (Homo sapiens, UniProt P01116); assay: QRET nucleotide exchange assay, SOScat induced; format: biochemical; conditions: for EC50: nucleotide titration, SOScat 5 nM (Table S2), 10 nM (Fig. 3 legend); for EC50 / KRAS binding level / KRAS binding: 15 nM KRAS; for KRAS binding level / KRAS binding: Fig. 3A legend, SOScat 10 nM
T3 construct: GG-Hs.KRAS4b (2-188), GG-Hs.KRAS4b (2-188) G12C; His6-MBP (N, cleaved yes); made in house; host or cells: E. coli
T3 sequence (P01116 2-188 isoform P01116-2): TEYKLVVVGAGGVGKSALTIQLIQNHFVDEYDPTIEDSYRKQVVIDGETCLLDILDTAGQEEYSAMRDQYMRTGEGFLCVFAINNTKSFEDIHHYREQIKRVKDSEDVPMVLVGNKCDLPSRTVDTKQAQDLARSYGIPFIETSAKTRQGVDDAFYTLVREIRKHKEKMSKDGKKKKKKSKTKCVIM

[5] = system: T4, RhoA; assay: Protein-Probe thermal stability assay; format: binding; conditions: Table S1; RhoA 1 µM; additive concentrations not given (100 µM GDP/GTP)
T4 construct: and RhoA (1-182) were gen-; His6-MBP (N, cleaved yes); made in house; host or cells: E. coli
Description: as §2, §3
as §4, with “HRAS (2 µM), NRAS (2 µM), RhoA (2 µM), and Gαi (50 nM) were monitored with 100 µM GDP, GTP, or ATP in buffers with or without 1 mM MgCl2 and 1 mM EDTA.” left out

[6] = system: T5, KRAS Q61R; assay: Protein-Probe thermal stability assay; format: binding, human; conditions: for Thermal Stability (°C): Table S1, KRAS Q61R 50 nM, EDTA 0.5 mM, MgCl2 1 mM, GDP 10 mM, GTP 10 µM as headed
T5 construct: GG-Hs.KRAS4b (2-188) Q61R; His6-MBP (N, cleaved yes); made in house; host or cells: E. coli
Description: as §2, §3, §4, §5

[7] = system: T6, KRAS G13D; assay: Protein-Probe thermal stability assay; format: binding, human; conditions: for Thermal Stability (°C): Table S1, KRAS G13D 50 nM, EDTA 0.5 mM, MgCl2 1 mM, GDP 10 mM, GTP 10 µM as headed
T6 construct: GG-Hs.KRAS4b (2-188) G13D; His6-MBP (N, cleaved yes); made in house; host or cells: E. coli
Description: as §2, §3, §4, §5

[8] = system: Gαi; assay: Protein-Probe thermal stability assay; format: binding; conditions: 100 µM GDP or GTP
Description: as §2, §3, §4

SMILES: CNCc1ccccc1-c1csc([C@@H](C)Nc2nc(C)nc3cc(OC)c(OC)cc23)c1 [BAY-293]
- thermal stability effect ([1]; KRAS G12C 50 nM): no response

SMILES: Cn1cnc(Cn2ccc3ccc(CNCc4[nH]c5ccccc5c4[C@H]4NC(=O)c5ccc(O)cc54)cc32)c1 [BI-2852]
- thermal stability effect ([2]; KRAS WT 50 nM): Neither compound altered; also recorded: negligible
- thermal stability effect ([1]; KRAS G12C 50 nM): negligible
- thermal stability effect [3]: Neither compound altered; also recorded: negligible
- IC50 ([4]; 100 nM KRAS WT, 10 nM SOScat, inhibitor preincubated with KRAS): 2800 ± 700 nM

SMILES: Cn1cnc(Cn2ccc3ccc(CNCc4[nH]c5ccccc5c4[C@@H]4NC(=O)c5ccc(O)cc54)cc32)c1 [BI-2853]
- thermal stability effect ([2]; KRAS WT 50 nM): Neither compound altered
- thermal stability effect ([1]; KRAS G12C 50 nM): no response
- thermal stability effect [3]: Neither compound altered
- effect on KRAS nucleotide exchange activity ([4]; 100 nM KRAS WT, 10 nM SOScat): no effect

SMILES: [Ca+2].[Cl-].[Cl-] [CaCl2]
- stability increase compared to 1 mM EDTA ([2]; KRAS WT 50 nM, additive 0.1 mM): 1.2 °C
- stability increase compared to 1 mM EDTA ([2]; KRAS WT 50 nM, additive 1 mM): 3.7 °C

SMILES: O=C(O)CN(CCN(CC(=O)O)CC(=O)O)CC(=O)O [EDTA]
- Tm ([2]; KRAS WT 50 nM, 1 mM EDTA, unit not given, in °C (unit assumed)): 50.8 ± 0.6
- Tm ([2]; KRAS WT 100 nM, additive 1 mM): 48.9 ± 0.4 °C
- Thermal Stability (°C) ([2]; KRAS WT 50 nM): 49.0 °C
- Thermal Stability (°C) [5]: 44.7 °C
- Thermal Stability (°C) ([1]; Table S1, KRAS G12C 50 nM, EDTA 0.5 mM, MgCl2 1 mM): 48.2 ± 0.4 °C
- Tm ([6]; KRAS Q61R 100 nM, additive 1 mM): 50.6 ± 1.0 °C
- Thermal Stability (°C) [6]: 51.8 ± 0.9 °C
- Tm ([7]; KRAS G13D 100 nM, additive 1 mM): 43.6 ± 0.8 °C
- Thermal Stability (°C) [7]: 47.7 ± 0.5 °C

SMILES: Nc1nc2c(ncn2[C@@H]2O[C@H](COP(=O)(O)O)[C@@H](O)[C@H]2O)c(=O)[nH]1 [GMP, guanosine-5’-monophosphate]
- KRAS stabilizing effect ([2]; KRAS WT 50 nM): no KRAS stabilizing effect; also recorded: no KRAS stabilization
- Thermal Stability (°C) ([2]; KRAS WT 50 nM): 61.3 °C
- EC50 [4]: 101000 ± 8000 nM

SMILES: Nc1nc2c(ncn2C2OC(COP(=O)(O)OP(=O)(O)CP(=O)(O)O)C(O)C2O)c(=O)[nH]1 (stereo not drawn) [GMP-PCP, guanosine-5’-[(β,γ)-methyleno]triphosphate]
- KRAS stabilizing effect ([2]; KRAS WT 50 nM): minor effects
- Thermal Stability (°C) ([2]; KRAS WT 50 nM): 64.4 °C
- KRAS binding level [4]: micromolar
- EC50 [4]: 542 ± 38 nM

SMILES: Nc1nc2c(ncn2[C@@H]2O[C@H](COP(=O)(O)OP(=O)(O)NP(=O)(O)O)[C@@H](O)[C@H]2O)c(=O)[nH]1 [GMP-PNP, guanosine-5’-[(β,γ)-imido]triphosphate]
- Tm of nucleotide-preloaded KRAS ([2]; KRAS 50 nM preloaded with the nucleotide, unit not given, in °C (unit assumed)): 53.2 ± 0.3
- concentration at which KRAS was stabilized ([2]; KRAS WT 50 nM): 300000 nM
- Thermal Stability (°C) ([2]; KRAS WT 50 nM): 67.1 ± 0.1 °C
- KRAS binding level [4]: micromolar
- EC50 [4]: 71.2 ± 9.3 nM

SMILES: Nc1nc2c(ncn2[C@@H]2O[C@H](COP(=O)(O)OP(=O)(O)OP(=O)(O)O)[C@@H](O)[C@H]2O)c(=O)[nH]1 [GTP, guanosine-5’-triphosphate]
- concentration at which KRAS was stabilized ([2]; KRAS WT 50 nM): 10000 nM
- Thermal Stability (°C) ([2]; KRAS WT 50 nM): 68.2 °C
- Thermal Stability (°C) [5]: 73.0 °C
- max ΔTm ([8]; with Mg2+): ≤ 1.0 °C
- max ΔTm ([8]; without Mg2+): ≤ 3.3 °C
- Thermal Stability (°C) [6]: 71.7 °C
- Thermal Stability (°C) [7]: 60.8 °C
- KRAS binding [4]: < 15 nM
- EC50 [4]: 7.9 ± 0.6 nM

SMILES: Nc1nc2c(ncn2[C@@H]2O[C@H](COP(=O)(O)OP(=O)(O)OP(O)(O)=S)[C@@H](O)[C@H]2O)c(=O)[nH]1 [GTPγS, guanosine-5’-(γ-thio)-triphosphate]
- concentration at which KRAS was stabilized ([2]; KRAS WT 50 nM): 10000 nM
- Thermal Stability (°C) ([2]; KRAS WT 50 nM): 67.8 ± 0.6 °C
- KRAS binding [4]: < 15 nM
- EC50 [4]: 11.7 ± 0.8 nM

SMILES: C=C(F)C(=O)N1CCN(c2nc(OC[C@@H]3CCCN3C)nc3c2CCN(c2cccc4cccc(Cl)c24)C3)C[C@@H]1CC#N [MRTX849]
- ΔTm ([1]; 50 nM KRAS G12C, inhibitor 0–900 nM, thermal stability increase): 15.6 °C
